# Reference: the supplement of paper PMC11208160
# Experiment: recombinant UMI read abundance after kanamycin selection (control-corrected) (log10(CPM+1)); higher = more efficient recombination; extreme values may be limits of the assay; sequences stand for … in AGTGCAGAGAAAATCGGCCAGTTTTCTCTGCCTGCAGTCCGCATGCCGTGGGACCCCTTGGGTTCTAACCTGTTGCCTAGATTTATGCAGCGGACTGCCTTTCTCCCAAAGTGATAAACCGG…AGGTTGGTTTCACT; site = the 11-nt donor
# Method in brief: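 Sequenced counts of recombinant UMIs were turned into CPM, averaged across replicates and scaled with control-derived factors. The reported figure is log10(CPM+1). Those UMIs, each 12 nt long, tagged donor and donor-binding-loop pairs on a plasmid with a promoterless kanamycin gene, screened as a pool in Escherichia coli with IPTG (0.07 mM) plus kanamycin or without selection.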
# 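Further: IS621 bridge recombinase in Escherichia coli cells against a fixed T5 target plasmid.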
row,Sequence,recombinant UMI read abundance (log10)
1,CGGACTTCATGGACCGGTTTTCCCGGTAATCCGTATTTGCC (site CGGACTTCTGG),1.27
2,CGGATGACATGGACCGGTTTTCCCGGTAATCCGTATTTGCA (site CGGATGACTTG),2.89
3,CGGATGGCATGGACCGGTTTTCCCGGTAATCCGTATTTGAA (site CGGATGGCTTT),2.15
4,CGGATTCCATGGACCGGTTTTCCCGGTAATCCGTATTTGCT (site CGGAATCCTAA),0
5,CGGATTCCATGGACCGGTTTTCCCGGTAATCCGTATTTGCT (site CGGATTCCTAG),0
6,CGGCACTCATGGACCGGTTTTCCCGGTAATCCGTATTTGTA (site CGGCACTCTTA),3.03
7,CGGCAGTCATGGACCGGTTTTCCCGGTAATCCGTATTTGCC (site CGGAAGTCTGG),0
8,CGGCAGTCATGGACCGGTTTTCCCGGTAATCCGTATTTGCC (site CGGCAGTCTGG),2.22
9,CGGCAGTCATGGACCGGTTTTCCCGGTAATCCGTATTTGCC (site CGGGAGTCTGG),0
10,CGGCAGTCATGGACCGGTTTTCCCGGTAATCCGTATTTGCC (site CGGTAGTCTGG),0
11,CGGCCATCATGGACCGGTTTTCCCGGTAATCCGTATTTGCT (site CGGACATCTAG),0
12,CGGCCATCATGGACCGGTTTTCCCGGTAATCCGTATTTGCT (site CGGCCATCTAG),1.29
13,CGGCCATCATGGACCGGTTTTCCCGGTAATCCGTATTTGCT (site CGGGCATCTAG),0.0046
14,CGGCCATCATGGACCGGTTTTCCCGGTAATCCGTATTTGCT (site CGGTCATCTAG),0
15,CGGCCCACATGGACCGGTTTTCCCGGTAATCCGTATTTGTG (site CGGCCCACTCA),0.024
16,CGGCCGACATGGACCGGTTTTCCCGGTAATCCGTATTTGTA (site CGGCCGACTTA),1.2
17,CGGCCTCCATGGACCGGTTTTCCCGGTAATCCGTATTTGTT (site CGGAATCCTAA),0.0121
18,CGGCCTCCATGGACCGGTTTTCCCGGTAATCCGTATTTGTT (site CGGCCTCCTAA),0.0159
19,CGGCGCCCATGGACCGGTTTTCCCGGTAATCCGTATTTGAG (site CGGCGCCCTCT),0.00618

row,Sequence,recombinant UMI read abundance (log10)
1,CGGCGCCCATGGACCGGTTTTCCCGGTAATCCGTATTTGTC (site CGGCGCCCTGA),1.85
2,CGGCTTTCATGGACCGGTTTTCCCGGTAATCCGTATTTGGC (site CGGCTTTCTGC),0.438
3,CGGGAAACATGGACCGGTTTTCCCGGTAATCCGTATTTGAT (site CGGGAAACTAT),2.27
4,CGGGAAACATGGACCGGTTTTCCCGGTAATCCGTATTTGAT (site CGGGAACCTAT),0.00381
5,CGGGAAACATGGACCGGTTTTCCCGGTAATCCGTATTTGAT (site CGGGAAGCTAT),2.21
6,CGGGAAACATGGACCGGTTTTCCCGGTAATCCGTATTTGAT (site CGGGAATCTAT),1.74
7,CGGGAACCATGGACCGGTTTTCCCGGTAATCCGTATTTGAT (site AGGGAACCTAT),0
8,CGGGAACCATGGACCGGTTTTCCCGGTAATCCGTATTTGAT (site CAGGAACCTAT),0
9,CGGGAACCATGGACCGGTTTTCCCGGTAATCCGTATTTGAT (site CCGGAACCTAT),0
10,CGGGAACCATGGACCGGTTTTCCCGGTAATCCGTATTTGAT (site CGAGAACCTAT),0
11,CGGGAACCATGGACCGGTTTTCCCGGTAATCCGTATTTGAT (site CGCGAACCTAT),0
12,CGGGAACCATGGACCGGTTTTCCCGGTAATCCGTATTTGAT (site CGGAAACCTAT),0
13,CGGGAACCATGGACCGGTTTTCCCGGTAATCCGTATTTGAT (site CGGCAACCTAT),0
14,CGGGAACCATGGACCGGTTTTCCCGGTAATCCGTATTTGAT (site CGGGAAACTAT),0
15,CGGGAACCATGGACCGGTTTTCCCGGTAATCCGTATTTGAT (site CGGGAACCTAA),0.00496
16,CGGGAACCATGGACCGGTTTTCCCGGTAATCCGTATTTGAT (site CGGGAACCTAC),0.0116
17,CGGGAACCATGGACCGGTTTTCCCGGTAATCCGTATTTGAT (site CGGGAACCTAG),0
18,CGGGAACCATGGACCGGTTTTCCCGGTAATCCGTATTTGAT (site CGGGAACCTAT),0
19,CGGGAACCATGGACCGGTTTTCCCGGTAATCCGTATTTGAT (site CGGGAACCTCT),0

row,Sequence,recombinant UMI read abundance (log10)
1,CGGGAACCATGGACCGGTTTTCCCGGTAATCCGTATTTGAT (site CGGGAACCTGT),0
2,CGGGAACCATGGACCGGTTTTCCCGGTAATCCGTATTTGAT (site CGGGAACCTTT),0.00554
3,CGGGAACCATGGACCGGTTTTCCCGGTAATCCGTATTTGAT (site CGGGAAGCTAT),0
4,CGGGAACCATGGACCGGTTTTCCCGGTAATCCGTATTTGAT (site CGGGAATCTAT),0
5,CGGGAACCATGGACCGGTTTTCCCGGTAATCCGTATTTGAT (site CGGGACCCTAT),0.0207
6,CGGGAACCATGGACCGGTTTTCCCGGTAATCCGTATTTGAT (site CGGGAGCCTAT),0
7,CGGGAACCATGGACCGGTTTTCCCGGTAATCCGTATTTGAT (site CGGGATCCTAT),0
8,CGGGAACCATGGACCGGTTTTCCCGGTAATCCGTATTTGAT (site CGGGCACCTAT),0.021
9,CGGGAACCATGGACCGGTTTTCCCGGTAATCCGTATTTGAT (site CGGGGACCTAT),0
10,CGGGAACCATGGACCGGTTTTCCCGGTAATCCGTATTTGAT (site CGGGTACCTAT),0
11,CGGGAACCATGGACCGGTTTTCCCGGTAATCCGTATTTGAT (site CGGTAACCTAT),0
12,CGGGAACCATGGACCGGTTTTCCCGGTAATCCGTATTTGAT (site CGTGAACCTAT),0
13,CGGGAACCATGGACCGGTTTTCCCGGTAATCCGTATTTGAT (site CTGGAACCTAT),0
14,CGGGAACCATGGACCGGTTTTCCCGGTAATCCGTATTTGAT (site GGGGAACCTAT),0
15,CGGGAACCATGGACCGGTTTTCCCGGTAATCCGTATTTGAT (site TGGGAACCTAT),0
16,CGGGAACCATGGACCGGTTTTCCCGGTAATCCGTATTTGGT (site CGGGAACCTAA),0.0297
17,CGGGAACCATGGACCGGTTTTCCCGGTAATCCGTATTTGGT (site CGGGAACCTAC),0
18,CGGGAACCATGGACCGGTTTTCCCGGTAATCCGTATTTGGT (site CGGGAACCTAG),0
19,CGGGAACCATGGACCGGTTTTCCCGGTAATCCGTATTTGGT (site CGGGAACCTAT),0
